Laboratory results: article PMC13001051, “TRPA1-kinase axis polarization: Nepetalactone drives pest repulsion and predator attraction via divergent PKC/CaMKII signaling” (Journal of Advanced Research, 2025)
pEC50: −log10 of the molar value.

What was measured:
Assay in all cases: Fluo-4 calcium flux in transfected HEK293T cells
PjTRPA1 = test system: T1, PjTRPA1; assay type: cell-based, Propylea japonica; details: agonist; DMSO as negative control
T1 construct: gene TRPA1; full-length in pcDNA3.1(+)-mCherry, HEK293T cells
From the text: Fluo-4 calcium flux in transfected HEK293T cells on PjTRPA1 | Concentration-response curves of nepetalactone-induced calcium signaling in HEK293T cells heterologously expressing HaTRPA1 or PjTRPA1

MuTRPA1 = test system: T2, MuTRPA1; assay type: cell-based, Megalurothrips usitatus; details: agonist; DMSO as negative control
T2 construct: gene TRPA1; full-length ORF (1403 aa, 16 ankyrin repeats) in pcDNA3.1(+)-mCherry, HEK293T cells

DcTRPA1 = test system: T3, DcTRPA1; assay type: cell-based, Diaphorina citri; details: agonist; DMSO as negative control
T3 construct: gene TRPA1; full-length ORF (1073 aa, 14 ankyrin repeats) in pcDNA3.1(+)-mCherry, HEK293T cells

HaTRPA1 = molecular target: T4, HaTRPA1 (Harmonia axyridis, UniProt Z9S2A3GZC9); assay type: cell-based
T4 construct: full-length in pcDNA3.1(+)-mCherry, HEK293T cells
T4 sequence (Z9S2A3GZC9 1-1276): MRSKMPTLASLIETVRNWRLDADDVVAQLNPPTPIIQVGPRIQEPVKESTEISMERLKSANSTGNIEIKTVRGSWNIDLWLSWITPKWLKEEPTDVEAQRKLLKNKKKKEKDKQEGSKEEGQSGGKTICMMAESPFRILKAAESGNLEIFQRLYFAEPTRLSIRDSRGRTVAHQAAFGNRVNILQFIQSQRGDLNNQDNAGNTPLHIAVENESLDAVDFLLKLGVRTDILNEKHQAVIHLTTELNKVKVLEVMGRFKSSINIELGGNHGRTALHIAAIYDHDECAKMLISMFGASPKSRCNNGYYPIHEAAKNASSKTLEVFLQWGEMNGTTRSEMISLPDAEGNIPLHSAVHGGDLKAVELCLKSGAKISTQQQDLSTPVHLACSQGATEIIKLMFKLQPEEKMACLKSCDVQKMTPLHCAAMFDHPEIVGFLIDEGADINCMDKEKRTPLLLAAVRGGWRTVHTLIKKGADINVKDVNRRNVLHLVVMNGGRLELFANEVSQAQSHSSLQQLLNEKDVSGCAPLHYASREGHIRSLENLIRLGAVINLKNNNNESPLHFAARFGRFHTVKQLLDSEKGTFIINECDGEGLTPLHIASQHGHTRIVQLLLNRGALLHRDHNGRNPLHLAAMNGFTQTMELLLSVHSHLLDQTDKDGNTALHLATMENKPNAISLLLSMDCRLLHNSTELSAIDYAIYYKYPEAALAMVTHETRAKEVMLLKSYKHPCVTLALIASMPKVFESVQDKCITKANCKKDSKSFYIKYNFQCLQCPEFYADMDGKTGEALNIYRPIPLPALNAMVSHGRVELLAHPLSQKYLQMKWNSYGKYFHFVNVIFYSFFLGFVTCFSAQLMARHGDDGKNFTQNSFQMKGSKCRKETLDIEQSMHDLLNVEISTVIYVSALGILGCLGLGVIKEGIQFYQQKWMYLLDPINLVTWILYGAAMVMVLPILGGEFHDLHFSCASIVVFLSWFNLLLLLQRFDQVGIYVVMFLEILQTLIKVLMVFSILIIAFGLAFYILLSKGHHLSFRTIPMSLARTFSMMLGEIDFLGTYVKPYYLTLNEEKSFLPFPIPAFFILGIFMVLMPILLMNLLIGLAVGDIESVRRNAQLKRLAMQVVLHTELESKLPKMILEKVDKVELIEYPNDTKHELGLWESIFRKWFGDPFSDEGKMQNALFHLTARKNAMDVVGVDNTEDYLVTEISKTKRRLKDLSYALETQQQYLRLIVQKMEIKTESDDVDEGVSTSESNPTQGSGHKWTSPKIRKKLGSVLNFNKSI
From the text: Fluo-4 calcium flux in transfected HEK293T cells on HaTRPA1 | Concentration-response curves of nepetalactone-induced calcium signaling in HEK293T cells heterologously expressing HaTRPA1 or PjTRPA1

## CC1=COC(=O)C2C(C)CCC12 (stereo not shown) [nepetalactone]
PjTRPA1
  pEC50: 3.89
MuTRPA1
  pEC50: 3.76
DcTRPA1
  pEC50: 3.16
HaTRPA1
  pEC50: 3.39
